ChEMBL document CHEMBL1777758, “Selective labeling and monitoring pH changes of lysosomes in living cells with fluorogenic pH sensors” (Bioorg Med Chem Lett, 2011)

Tests used:
[1] = Dissociation constant, pKa of the compound; assay type: physicochemical
[2] = Drug uptake in lysosomes of BPAEC at 1 uM after 30 mins by fluorescence microscopy; assay type: ADME, Bos taurus, Lysosome; details: cattle, 0.5 h

Row | Structure (SMILES) | pKa [1] | Drug uptake [2]
1 | CC1=CC(C)=[N+]2C1=C(c1ccc(N(C)C)cc1)c1c(C)cc(C)n1[B-]2(F)F | 3.2 | Active
2 | CCN(CC)c1ccc(C2=C3C=CC(CCC(=O)OC)=[N+]3[B-](F)(F)n3c(CCC(=O)OC)ccc32)cc1 | 3.2 | Active
3 | CCN(CCCC(=O)OC)c1ccc(C2=C3C(C)=CC(C)=[N+]3[B-](F)(F)n3c(C)cc(C)c32)cc1 | 3.2 | Active
4 | CCN(CC)c1ccc(C2=C3C(C)=CC(C)=[N+]3[B-](F)(F)n3c(C)cc(C)c32)cc1 | 5.2 | Active
